Data published in patent publication US10906899B2, “Bicyclic fused pyrazole derivatives for the treatment of RSV” (GEORGIA STATE UNIVERSITY RESEARCH FOUNDATION, INC., priority 2016, dated 2021).

Each compound was assayed on RSV (assay: Dose-response counterscreen: luciferase reporter virus infection of BEAS-2B cells (EC50)). Details: human respiratory syncytial virus, A series compounds, anti-RSV potency, read-out: Potency Range (EC50 values).
Format: cell-based, respiratory syncytial virus (RSV)
With `COc1ccc(-c2cc(=O)[nH]c3c2cnn3-c2ccccc2)cc1OC1CCCC1` [AVG-067, 4-(3-(cyclopentyloxy)-4-methoxyphenyl)-1-phenyl-1H-pyrazolo[3,4-b]pyridine-6(7H)-one] the EC50 was greater than 20 µM. Work on `COc1ccc(C2CC(=O)Nc3nn(-c4ccccn4)cc32)cc1OC1CCCC1` (stereo not shown) [AVG-117] yielded an EC50 of 10 to 20 µM. In the case of `COc1cc(C2CC(=O)Nc3nn(-c4nc5ccccc5s4)cc32)ccc1OC1CCCC1` (stereo not shown) [AVG-006b], the EC50 is reported as 1 to 10 µM. `COc1cc(C2CC(=O)Nc3c2cnn3-c2nc3ccccc3s2)ccc1OC1CCCC1` (stereo not shown) [AVG-006, 1-(benzo[d]thiazol-2-yl)-4-(4-(cyclopentyloxy)-3-methoxyphenyl)-4,5-dihydro-1H-pyrazolo[3,4-b]pyridin-6(7H)-one] showed an EC50 of 1 to 10 µM. `COc1ccc(Cn2ncc3c2NC(=O)CC3c2ccc(OC)c(OC3CCCC3)c2)c(OC)c1` (stereo not shown) [AVG-068, 4-(3-(cyclopentyloxy)-4-methoxyphenyl)-1-(2,4-dimethoxybenzyl)-4,5-dihydro-1H-pyrazolo[3,4-b]pyridin-6(7H)-one] gave an EC50 of 1 to 10 µM. `COc1cc(C2CC(=O)Nc3[nH]ncc32)ccc1OC1CCCC1` (stereo not shown) [AVG-179] gave an EC50 greater than 20 µM. For `COc1ccc(Cn2ncc3c2NC(=O)CC3c2ccc(OC3CCCC3)c(OC)c2)c(OC)c1` (stereo not shown) [AVG-181], the EC50 was 1 to 10 µM.

Same assay, conditions: human respiratory syncytial virus, B series compounds, read-out: Potency Range (EC50 values)
`Cc1c2c(=O)n(-c3ccccn3)n(Cc3ccccc3)c2cc(=O)n1Cc1cccc(F)c1` [AVG-131] gave an EC50 of 0.1 to 1 µM. For `Cc1c2c(=O)n(-c3nc4ccccc4s3)n(Cc3cnco3)c2cc(=O)n1Cc1ccco1` [AVG-126], the EC50 was 1 to 10 µM. Compound `Cc1c2c(=O)n(-c3nc4ccccc4s3)n(Cc3ccccc3)c2cc(=O)n1CC1CCC(=O)N1C` (stereo not shown) [AVG-212] has an EC50 of 10 to 20 µM. `COc1cccc(Cn2c(C)c3c(=O)n(-c4nc5ccccc5s4)n(Cc4ccccc4)c3cc2=O)n1` [AVG-158] was tested, and the EC50 was 0.1 to 1 µM. `Cc1c2c(=O)n(-c3nc4ccccc4s3)n(Cc3ccccc3)c2cc(=O)n1CC1CCNCC1` [AVG-038] gave an EC50 greater than 20 µM. `Cc1c2c(=O)n(-c3nc4ccccc4s3)n(Cc3ccccc3)c2cc(=O)n1Cc1cn(C)cn1` [AVG-100] gave an EC50 greater than 20 µM. Compound `COc1cccc2sc(-n3c(=O)c4c(C)n(Cc5cccc(Cl)n5)c(=O)cc4n3Cc3ccccc3)nc12` [AVG-187] has an EC50 of 0.1 to 1 µM. `Cc1c2c(=O)n(-c3nc4ccccc4s3)n(Cc3ccccc3)c2cc(=O)n1Cc1ccccc1Cl` [AVG-076] gave an EC50 of 10 to 20 µM. `Cc1c2c(=O)n(-c3nc4ccccc4s3)n(CC3CCCCO3)c2cc(=O)n1Cc1ccco1` (stereo not shown) [AVG-073] showed an EC50 of 1 to 10 µM. `COc1cccc(Cn2c3cc(=O)n(Cc4cccc(Cl)n4)c(C)c3c(=O)n2-c2nc3ccccc3s2)c1` [AVG-177] was tested, and the EC50 was 0.1 to 1 µM. With `Cc1c2c(=O)n(-c3nc4ccccc4s3)n(Cc3ccccc3)c2cc(=O)n1Cc1nccnc1Cl` [AVG-164] the EC50 was greater than 20 µM. `Cc1c2c(=O)n(-c3nc4ccccc4s3)n(C)c2cc(=O)n1Cc1ccc(Cl)cc1` [AVG-032] was tested, and the EC50 was greater than 20 µM. With `Cc1c2c(=O)n(-c3nc4ccccc4s3)n(Cc3ccccc3)c2cc(=O)n1Cc1ccco1` [AVG-021, 2-(benzo[d]thiazol-2-yl)-1-benzyl-5-(furan-2-ylmethyl)-4-methyl-1H-pyrazolo[4,3-c] pyridine-3,6(2H,5H)-dione] the EC50 was 1 to 10 µM. In the case of `Cc1c2c(=O)n(-c3nc4ccccc4s3)n(Cc3ccccc3)c2cc(=O)n1Cc1ccnn1C` [AVG-102], the EC50 is reported as 1 to 10 µM. In the case of `Cc1ccc2sc(-n3c(=O)c4c(C)n(Cc5cccc(Cl)n5)c(=O)cc4n3Cc3ccccc3)nc2c1` [AVG-192], the EC50 is reported as 0.1 to 1 µM. `Cc1c2c(=O)n(-c3nc4ccccc4s3)n(Cc3ccccc3)c2cc(=O)n1Cc1cccc(N2CCN(C)CC2)n1` [AVG-225] was tested, and the EC50 was 0.1 to 1 µM. `Cc1c2c(=O)n(-c3nc4ccccc4s3)n(Cc3ccccc3)c2cc(=O)n1Cc1ccncn1` [AVG-092] was tested, and the EC50 was 1 to 10 µM. Work on `Cc1c2c(=O)n(-c3cccnc3)n(Cc3ccccc3)c2cc(=O)n1Cc1ccco1` [AVG-081] yielded an EC50 of 10 to 20 µM. `Cc1c2c(=O)n(-c3ncccn3)n(Cc3ccccc3)c2cc(=O)n1Cc1ccco1` [AVG-105] gave an EC50 greater than 20 µM. `COc1cc(C2CC(=O)Nc3c2c(OS(=O)(=O)C(F)(F)F)nn3-c2nc3ccccc3s2)ccc1OC1CCCC1` (stereo not shown) [AVG-257, 1-(benzo[d]thiazol-2-yl)-4-(4-(cyclopentyloxy)-3-methoxyphenyl)-6-oxo-4,5,6,7-tetrahydro-1H-pyrazolo[3,4-b]pyridin-3-yl trifluoromethanesulfonate] gave an EC50 of 10 to 20 µM. In the case of `Cc1c2c(=O)n(-c3nc4ccccc4s3)n(Cc3ccccc3)c2cc(=O)n1Cc1ccccn1` [AVG-036], the EC50 is reported as 0.1 to 1 µM. For `COc1ccc(Cn2c(=O)c3c(C)n(Cc4ccccn4)c(=O)cc3n2Cc2ccccc2)cc1` [AVG-199], the EC50 was 10 to 20 µM. For `Cc1nc(-n2c(=O)c3c(C)n(Cc4ccco4)c(=O)cc3n2Cc2ccccc2)sc1C` [AVG-033], the EC50 was 1 to 10 µM. `Cc1c2c(=O)n(-c3ccccn3)n(CC3CCOCC3)c2cc(=O)n1Cc1ccc(Cl)cc1` [AVG-079] was tested, and the EC50 was greater than 20 µM. Work on `Cc1c2c(=O)n(-c3nc4ccccc4s3)n(Cc3ccccc3)c2cc(=O)n1Cc1cccnc1` [AVG-088] yielded an EC50 of 1 to 10 µM. Compound `Cc1c2c(=O)n(-c3nc4ccccc4s3)n(Cc3ccccc3)c2cc(=O)n1Cc1ccn[nH]1` [AVG-101] has an EC50 of 1 to 10 µM. For `COc1cccc(Cn2c(C)c3c(=O)n(-c4ccccn4)n(Cc4ccccc4)c3cc2=O)c1` [AVG-134], the EC50 was 0.1 to 1 µM. `Cc1c2c(=O)n(-c3nc4ccccc4s3)n(Cc3ccccc3)c2cc(=O)n1Cc1cccc(OC(C)C)n1` [AVG-205] showed an EC50 of 0.1 to 1 µM. For `Cc1c2c(=O)n(-c3nc4ccccc4s3)n(Cc3ccncc3)c2cc(=O)n1Cc1ccco1` [AVG-121], the EC50 was 1 to 10 µM. `Cc1c2c(=O)n(-c3nc4ccccc4s3)n(Cc3ccccc3)c2cc(=O)n1CC1CCCO1` (stereo not shown) [AVG-074] showed an EC50 of 10 to 20 µM. Work on `Cc1c2c(=O)n(-c3ccccc3)n(Cc3ccccc3)c2cc(=O)n1Cc1ccco1` [AVG-080] yielded an EC50 of 1 to 10 µM. `Cc1c2c(=O)n(-c3nc4ccccc4s3)n(CC3CCNCC3)c2cc(=O)n1Cc1ccco1` [AVG-026] showed an EC50 of 1 to 10 µM. With `Cc1c2c(=O)n(-c3nc4ccccc4s3)n(CC3CCCCC3)c2cc(=O)n1Cc1ccco1` [AVG-024] the EC50 was 1 to 10 µM. With `COc1ccc2nc(-n3c(=O)c4c(C)n(Cc5cccc(Cl)n5)c(=O)cc4n3Cc3ccccc3)sc2c1` [AVG-189] the EC50 was 0.01 to 0.1 µM. In the case of `Cc1c2c(=O)n(-c3nc4ccccc4s3)n(Cc3cccnc3)c2cc(=O)n1Cc1ccco1` [AVG-120], the EC50 is reported as 1 to 10 µM. In the case of `Cc1c2c(=O)n(-c3ccncc3)n(Cc3ccccc3)c2cc(=O)n1Cc1ccco1` [AVG-082], the EC50 is reported as 1 to 10 µM. Compound `Cc1cccc(Cn2c(C)c3c(=O)n(-c4nc5ccccc5s4)n(Cc4ccccc4)c3cc2=O)n1` [AVG-157] has an EC50 of 0.1 to 1 µM. With `Cc1c2c(=O)n(-c3nc4ccccc4s3)n(Cc3ccccc3)c2cc(=O)n1Cc1cncc(Cl)n1` [AVG-162] the EC50 was 10 to 20 µM. With `Cc1c2c(=O)n(-c3nc4ccncc4s3)n(Cc3ccccc3)c2cc(=O)n1Cc1cccc(Cl)n1` [AVG-197] the EC50 was 0.01 to 0.1 µM. `Cc1c2c(=O)n(-c3nc4ccccc4s3)n(C)c2cc(=O)n1Cc1ccccn1` [AVG-037] gave an EC50 greater than 20 µM. For `Cc1c2c(=O)n(-c3nc4ccccc4s3)n(Cc3ccccc3)c2cc(=O)n1Cc1cccc(C2CCOCC2)n1` [AVG-227], the EC50 was 0.1 to 1 µM. Compound `Cc1c2c(=O)n(-c3ccccn3)n(Cc3ccccc3)c2cc(=O)n1Cc1ccc(Cl)cc1` [AVG-078] has an EC50 of 0.1 to 1 µM. Work on `Cc1c2c(=O)n(-c3nc4ccccc4s3)n(Cc3ccccc3)c2cc(=O)n1Cc1ccn(C)n1` [AVG-103] yielded an EC50 of 1 to 10 µM. `Cc1c2c(=O)n(-c3nc4ccc(Cl)cc4s3)n(Cc3ccccc3)c2cc(=O)n1Cc1cccc(Cl)n1` [AVG-185] gave an EC50 of 0.1 to 1 µM. `COc1ccccc1Cn1c2cc(=O)n(Cc3cccc(Cl)n3)c(C)c2c(=O)n1-c1nc2ccccc2s1` [AVG-176] gave an EC50 of 0.1 to 1 µM. Compound `Cc1c2c(=O)n(-c3nc4ccccc4s3)n(Cc3ccccc3)c2cc(=O)n1C1CCN(C)CC1` [AVG-042] has an EC50 of 1 to 10 µM. `Cc1c2c(=O)n(-c3nc4ccccc4s3)n(Cc3ccccc3)c2cc(=O)n1Cc1cccc(C(C)C)n1` [AVG-159] showed an EC50 of 0.01 to 0.1 µM. Compound `Cc1c2c(=O)n(-c3cnccn3)n(Cc3ccccc3)c2cc(=O)n1Cc1ccco1` [AVG-106] has an EC50 of 1 to 10 µM. `Cc1c2c(=O)n(-c3nc4ccccc4s3)n(Cc3ccccc3)c2cc(=O)n1Cc1cc(Cl)cc(Cl)n1` [AVG-169] was tested, and the EC50 was 0.1 to 1 µM. `Cc1cccc2sc(-n3c(=O)c4c(C)n(Cc5cccc(Cl)n5)c(=O)cc4n3Cc3ccccc3)nc12` [AVG-191] was tested, and the EC50 was 0.1 to 1 µM. `Cc1c2c(=O)n(-c3ccccn3)n(Cc3ccccc3)c2cc(=O)n1Cc1ccco1` [AVG-035] was tested, and the EC50 was 1 to 10 µM. `Cc1c2c(=O)n(-c3nc4cccnc4s3)n(Cc3ccccc3)c2cc(=O)n1Cc1cccc(Cl)n1` [AVG-198] was tested, and the EC50 was 0.1 to 1 µM. Compound `Cc1c2c(=O)n(-c3nc4ccccc4s3)n(Cc3ccccc3)c2cc(=O)n1Cc1cc(Cl)ccn1` [AVG-160] has an EC50 of 1 to 10 µM. `Cc1c2c(=O)n(-c3nc4ccccc4s3)n(Cc3ccccn3)c2cc(=O)n1Cc1ccco1` [AVG-119] gave an EC50 of 1 to 10 µM. Work on `COc1ccc(Cn2c3cc(=O)n(Cc4cccc(OC)n4)c(C)c3c(=O)n2-c2ccccn2)cc1` [AVG-232] yielded an EC50 of 0.01 to 0.1 µM. `Cc1c2c(=O)n(-c3nc4ccccc4s3)n(Cc3ccc(Cl)cc3)c2cc(=O)n1Cc1cccc(Cl)n1` [AVG-173] was tested, and the EC50 was 0.1 to 1 µM. With `Cc1c2c(=O)n(-c3nc4ccccc4s3)n(Cc3ccccc3)c2cc(=O)n1CC1CCN(C)CC1` [AVG-039] the EC50 was 10 to 20 µM. For `Cc1c2c(=O)n(-c3nc4ccccc4s3)n(Cc3ccccc3)c2cc(=O)n1Cc1ncco1` [AVG-096], the EC50 was 1 to 10 µM. In the case of `Cc1c2c(=O)n(-c3ccccn3)n(Cc3ccccc3)c2cc(=O)n1Cc1ccc(F)cc1` [AVG-129], the EC50 is reported as 0.1 to 1 µM. In the case of `Cc1c2c(=O)n(-c3ccncn3)n(Cc3ccccc3)c2cc(=O)n1Cc1ccco1` [AVG-108], the EC50 is reported as 1 to 10 µM. With `Cc1c2c(=O)n(-c3nc4ccccc4s3)n(Cc3ccccc3)c2cc(=O)n1Cc1cccnn1` [AVG-091] the EC50 was 1 to 10 µM. `Cc1c2c(=O)n(-c3nc4ccccc4s3)n(Cc3ccccc3)c2cc(=O)n1CC1CCCC(=O)N1` (stereo not shown) [AVG-210] showed an EC50 of 10 to 20 µM. Compound `Cc1c2c(=O)n(-c3nc4ccccc4s3)n(Cc3ccccc3)c2cc(=O)n1Cc1c[nH]cn1` [AVG-099] has an EC50 of 1 to 10 µM. With `Cc1c2c(=O)n(-c3nc4ccccc4s3)n(Cc3ccccc3)c2cc(=O)n1Cc1cccc(Cl)n1` [AVG-094] the EC50 was 0.1 to 1 µM. `Cc1c2c(=O)n(-c3nc4ccccc4s3)n(Cc3ccccc3)c2cc(=O)n1Cc1cnc(Cl)cn1` [AVG-163] gave an EC50 of 1 to 10 µM. For `Cc1c2c(=O)n(-c3ccccn3)n(Cc3ccccc3)c2cc(=O)n1Cc1nccs1` [AVG-239], the EC50 was 1 to 10 µM.
